Experimental data from PMC5592744 (Frontiers in Microbiology, 2017).

Experiments:
S. aureus SrtA (WT-SrtA) = S. aureus SrtA (WT-SrtA) (Staphylococcus aureus, UniProt Q2FV99); assay: biochemical
S. aureus [1] = assay: microbe, parasite or virus in culture; assay type: cell-based; settings: Staphylococcus aureus, read-out: minimum inhibitory concentration (MIC)
S. aureus USA 300 = assay type: cell-based, Staphylococcus aureus
hla gene = assay type: cell-based, Staphylococcus aureus
agrA gene = assay type: cell-based, Staphylococcus aureus
SpA display in S. aureus = assay type: cell-based, Staphylococcus aureus
[2] = system: adhesion of S. aureus to Fn; assay type: cell-based, Staphylococcus aureus
[3] = system: S. aureus biofilm formation; assay type: cell-based, Staphylococcus aureus
[4] = system: S. aureus invasion of J774 cells; assay type: cell-based, Staphylococcus aureus
WT-SrtA = WT-SrtA (Staphylococcus aureus, UniProt Q2FV99); assay: biochemical; assay type: binding
WT-SrtA, sequence (Q2FV99 60-206): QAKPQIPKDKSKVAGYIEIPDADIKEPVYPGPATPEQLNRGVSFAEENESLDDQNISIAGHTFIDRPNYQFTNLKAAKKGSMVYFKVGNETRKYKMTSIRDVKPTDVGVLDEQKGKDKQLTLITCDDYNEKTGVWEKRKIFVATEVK

A549 cells [5] = assay type: cell-based
S. aureus [6] = system: S. aureus; design: species or system C57BL/6J mice; settings: mouse, in vivo
A549 cells [7] = system: A549 cells

S. aureus SrtA (WT-SrtA), sequence (Q2FV99 60-206): as above

## O=C(/C=C/c1ccccc1)c1ccccc1 [chalcone]
S. aureus SrtA (WT-SrtA)
  IC50: 53.2 µM
S. aureus [1]
  MIC: > 4.86 mM
S. aureus USA 300
  growth of S. aureus USA 300: not visibly affected
Hla gene
  transcription level of the hla gene: down-regulated
agrA gene
  transcription level of the agrA gene: down-regulated
SpA display in S. aureus
  SpA display: significant reductions
[2]
  adhesion rate to Fn: no inhibition was observed
[3]
  biofilm formation, untreated vs. treated: quite significant
[4]
  quantity of bacteria entering J774 cells: significantly decreased
WT-SrtA
  Kd: 16.4 µM
A549 cells [5]
  Hla-induced A549 cell injury (Live/Dead): obvious reduction in cell injury
  release of LDH into the supernatants: significantly decrease
S. aureus [6]
  survival rate vs. group without treatment: significantly higher
A549 cells [7]
  cytotoxic effect in A549 cells: almost no cytotoxic effect
